Data published in patent US20100297047A1, “ESTERS OF GLYCEROL AND THEIR USES IN COSMETIC AND PHARMACEUTICAL APPLICATIONS” (BIOPHIL ITALIA S.P.A., priority 2007, published 2010).

Test: Solubilisation of poorly soluble active ingredients in the Olea europea triglycerides/diglycerides mixture
Assay type: physicochemical
Source text: Improved formulations have been prepared by solubilising lipophilic ingredients, which are known for their interesting cosmetic activity but also for their difficult usage due to their poor solubility and/or dispersion into common cosmetic matrixes.
Ceramides are major components (roughly 40%) of the lipidic layers of the epidermis barrier, which drive the balance between hydration and loss of water, having the important role of “cement” between the corneocytes, i.e. the brick cells forming the dermal layers. The high difficulty for the application of ceramides in cosmetics is their poor solubility: in order to solubilise them into esters, a heating step above 90° C. is normally required with possible damage of the ceramides.
The use of triglycerides/diglycerides mixture as a solubiliser has allowed the solubilisation of ceramide-3 also at high concentration (up to 50%) without excessive and long time heating steps, A liquid ingredient, easy to use by simple addition into the lipid phase of the cosmetic formulation, has been obtained so far.
Sericin is one of the two families of proteins constituting the pure silk secreted by the silkworm glands: its dimensions vary from 60 up to 500 kDa. […]

## CCCCCCCCCCCCCCCCCC(=O)N[C@@H](CO)[C@H](O)[C@H](O)CCCCCCCCCCCCCC [ceramide-3]
triglycerides/diglycerides mixture as solubiliser, without excessive and long time heating steps
  concentration at which ceramide-3 is solubilised: up to 50%

## sericin
In mixtures of triglycerides/diglycerides from olive, compared with other commonly used vehicles or solubilisers
  dissolution of high molecular weight sericin: successfully dissolved
